# Source: US12590057B2, “Crystalline complexes” (Theracryf PLC, priority 2020, dated 2026)
# “And” between values parts separate entries of the source, which are not always exact repeats. Equal values may be shown once.
# Columns and labels:
# Format in all cases: physicochemical
# [1] = GVS sorption-desorption isotherms; details: for water content at starting conditions (GVS): 40% RH and 25° C.; for additional water taken up (GVS): RH increased to 90%; for crystalline form by XRPD after GVS: after sorption/desorption cycle(s); for total water content (GVS): at 90% RH; for water taken up (GVS): between 0% and 60% RH (Form 1: at 60% RH)
# Description: Sorption isotherms were obtained using a SMS DVS Intrinsic moisture sorption analyser, controlled by DVS Intrinsic Control software. The sample temperature was maintained at 25° C. by the instrument controls. The humidity was controlled by mixing streams of dry and wet nitrogen, with a total flow rate of 200 ml/min. The relative humidity was measured by a calibrated Rotronic probe (dynamic range of 1.0-100% RH), located near the sample. The weight change, (mass relaxation) of the sample as a function of % RH was constantly monitored by a microbalance (accuracy±0.005 mg). Typically, 5-30 mg of sample was placed in a tared mesh stainless steel basket under ambient conditions. The sample was loaded and unloaded at 40% RH and 25° C. (typical room conditions). A moisture sorption isotherm was performed as outlined below (2 scans per complete cycle). The standard isotherm was performed at 25° C. at 10% RH intervals over a 0-90% RH range. Typically, a double cycle (4 scans) was carried out. Data analysis was carried out within Microsoft Excel using the DVS Analysis Suite. Samples of Example 1 (Form 1) and Example 3 (Form 3) were analysed for their sorption-desorption isotherms by GVS. […] The sample contained approximately 8% w/w water at the starting conditions of 40% RH and 25° C. […] Therefore, the second sorption profile seen in FIG. 18A is that of Form 3. […] The sample contained approximately 3-4% w/w water at the starting conditions of 40% RH and 25° C. […] A significant uptake of moisture occurred in the first sorption cycle between 60 and 70% RH equivalent to approximately 5% w/w.
# [2] = Compaction testing (Heckel analysis); details: for True Density: Helium Pycnometry; for Loss on Drying - end: end of compression testing; for Loss on Drying - end / Loss on Drying - start: 105° C.; for Yield pressure slow: punch speed 0.1 mm/s; for Yield pressure fast: punch speed 300 mm/s; for Loss on Drying - start: start of compression testing
# Excerpt: Samples of Form 1 and Form 3 were subjected to Heckel analysis to determine the yield pressure of the material upon compression under controlled conditions. A known weight of material was compressed within a 10 mm diameter die with flat faced punches moving at a set speed. The die was lubricated with magnesium stearate in acetone. The force on the punch was accurately measured at frequent intervals whilst the displacement of the punches was used to calculate the volume of the powder. The yield pressure was calculated at slow (0.1 mm/s) and fast (300 mm/s) punch speeds to assess the time dependant component to deformation of the material. The true density of the material was determined by Helium Pycnometry (Micromeritics AccuPyc II 1340) using a purge pressure and run fill pressure of 19.5 psig and an equilibration rate of 0.02 psig. Testing was performed in duplicate. Temperature and humidity were monitored at intervals during the testing.
# The data were analysed by the Compaction Analysis software programme to generate values for yield pressure (Py) using the Heckel equation: ln(1/1−D)=kP+A where D=the relative density of the compact; P=Pressure applied; and K=Gradient of the line in the linear region [Heckel, Trans. Metall. Soc. AIME 221 (1961)1001-1008].
# Strain Rate Sensitivity (SRS) can be calculated to determine whether the deformation characteristics of the material change with the rate of applied force. The yield pressure at high speed compression is compared to that at slow speed using the following equation [Roberts and Roe, Chem. Eng. Sci. 42(1987) p. 903]. % SRS=100×[(Py Fast−Py Slow)/Py Slow]
# Loss on drying was carried out on the samples at the start and at the end of compression testing to monitor for moisture absorption during testing. A sample size of 2.0 g±0.2 g was spread onto an aluminium tray and dried until stable at 105° C. using a Mettler HB43-S Halogen moisture balance.
# [3] = Chemical stability in biorelevant media
# Description: Samples of Form 1 (batch ref […]-0004-S-8002) and Form 3 (Example 5.4.1 (batch ref. 491PAL22; A-19-0132)) in 0.1 M HCl and FaSSIF media (1.2 mg/ml) were stored at ambient and 37° C. for up to 7 days. Chemical stability was assessed by determining the concentration of parent compound by HPLC on days 0, 3 and 7 in triplicate.
# [4] = Equilibrium solubility in biorelevant media (shake flask); design: Equilibrium solubility, Mean Conc: unit not given here; details: for equilibrium solubility in words: 0.1 M HCl and FaSSIF media; for Equilibrium solubility, Mean Conc: 37° C.
# Description: The equilibrium solubility of samples of Form 1 (batch ref […]-0004-S-8002) and Form 3 (Example 5.4.1 (batch ref, 491PAL22; A-19-0132)) in 0.1M HCl and FaSSIF media at 37° C. was carried out using the shake flask method. Samples were taken at 4 hours and 24 hours and centrifuged for 5 minutes at 15,000 rpm. The supernatant was removed and diluted with appropriate solvent prior to HPLC analysis of the parent concentrations.
# [5] = XRPD physical form after storage; details: days 7, 9 and 29 after removal from drying oven, ambient conditions
# Description: XRPD diffractograms were collected on a PANalytical Empyrean diffractometer using Cu Kα radiation (45 kV, 40 mA) in transmission geometry. A 0.5° sat, 4 mm mask and 0.04 rad Soller slits with a focusing mirror were used on the incident beam. A PIXcel^3D detector, placed on the diffracted beam, was fitted with a receiving slit and 0.04 rad Soller slits. The software used for data collection was X'Pert Data Collector using X'Pert Operator Interface. The data were analysed and presented using Diffrac Plus EVA or HighScore Plus.
# After removal from the vacuum oven (day 0), Example 3 was reanalysed by XRPD in reflection mode on days 7, 9 and 29.
# In a separate study, samples of Form 3 (Example 5.3; batch ref. 491-PAL-18) having an initial water content by KF of 2.3% w/w were tested for water content at various time points after storage double bagged in a HDPE bottle under various conditions as shown in Table 17.
# [6] = Storage at high humidity and/or elevated temperature
# Description: A sample of Example 3 (Form 3) was stored at 25° C. and 97% RH for 7 days.
# A sample of Example 3 (Form 3) was stored at 40° C. and 75% RH for 7 days.
# [7] = 0.1M HCl, ambient, Day 0, 1.2 mg/ml nominal, Form 3 = Example 5.4.1
# [8] = 0.1M HCl, 4 Hours, Form 3 = Example 5.4.1
# [9] = FaSSIF, 4 Hours, atypical HPLC data and variable results
# [10] = FaSSIF, 24 Hours, atypical HPLC data and variable results
SMILES,water content at starting conditions (GVS) [1],additional water taken up (GVS) ([1]; 25° C.),crystalline form by XRPD after GVS [1],total water content (GVS) ([1]; 25° C.) [% w/w],water taken up (GVS) [1],compaction classification [2],sticking on punch or die wall [2],True Density [2] [g/mL],Loss on Drying - end [2] [% w/w],Yield pressure slow [2],Yield pressure fast [2],Loss on Drying - start [2] [% w/w],"Mean Conc of parent ([3]; 0.1M HCl, 37° C., Day 0) [µg/mL]","Mean Conc of parent ([3]; 0.1M HCl, 37° C., Day 3) [µg/mL]","Mean Conc of parent ([3]; 0.1M HCl, 37° C., Day 7) [µg/mL]","Mean Conc of parent [3, 7] [µg/mL]","Mean Conc of parent ([3]; 0.1M HCl, ambient, Day 3) [µg/mL]","Mean Conc of parent ([3]; 0.1M HCl, ambient, Day 7) [µg/mL]","Mean Conc of parent ([3]; FaSSIF, 37° C., Day 0) [µg/mL]","Mean Conc of parent ([3]; FaSSIF, 37° C., Day 3) [µg/mL]",also measured
C[S+]([O-])CCCCN=C=S.OCC1OC2OC3C(CO)OC(OC4C(CO)OC(OC5C(CO)OC(OC6C(CO)OC(OC7C(CO)OC(OC1C(O)C2O)C(O)C7O)C(O)C6O)C(O)C5O)C(O)C4O)C(O)C3O (stereo not shown) [Form 1],approximately 8 % w/w,4-5 % w/w,had converted to Form 3,12.9,8-9 % w/w,soft ductile,no evidence of sticking,1.4586,4.25,76 MPa and 76.3 (±1.05) MPa,89 MPa and 88.9 (±2.32) MPa,4.07,1180,1060,1050,1220,1090,1050,1180,920,"hysteresis (GVS) ([1]; 25° C.): Significant hysteresis existed between 70% and 30% RH; Mean Conc of parent ([3]; FaSSIF, 37° C., Day 7): 940 µg/mL; Mean Conc of parent ([3]; FaSSIF, ambient, Day 0): 1160 µg/mL; Mean Conc of parent ([3]; FaSSIF, ambient, Day 3): 960 µg/mL; Mean Conc of parent ([3]; FaSSIF, ambient, Day 7): 900 µg/mL; equilibrium solubility in words [4]: high and comparable; Equilibrium solubility, Mean Conc [4, 8]: 632; Equilibrium solubility, Mean Conc ([4]; 0.1M HCl, 24 Hours): 2605; Equilibrium solubility, Mean Conc [4, 9]: 271; Equilibrium solubility, Mean Conc [4, 10]: 247"
C[S+]([O-])CCCCN=C=S.OC[C@H]1O[C@@H]2O[C@H]3[C@H](O)[C@@H](O)[C@@H](O[C@H]4[C@H](O)[C@@H](O)[C@@H](O[C@H]5[C@H](O)[C@@H](O)[C@@H](O[C@H]6[C@H](O)[C@@H](O)[C@@H](O[C@H]7[C@H](O)[C@@H](O)[C@@H](O[C@H]1[C@H](O)[C@H]2O)O[C@@H]7CO)O[C@@H]6CO)O[C@@H]5CO)O[C@@H]4CO)O[C@@H]3CO [Form 3],3-4 % w/w,7-8 % w/w,remains as Form 3,11.1,about 4 % w/w,moderately hard brittle/ductile,no evidence of sticking,1.4562,1.13,109 MPa and 108.7 (±2.90) MPa,140 MPa and 140.4 (±3.65) MPa,1.99,1050,940,920,1080,940,1010,1010,800,"solid state form by XRPD (reflection mode) [5]: still existed as Form 3; uptake of moisture in the first sorption cycle (GVS) ([1]; between 60 and 70% RH): approximately 5 % w/w; decomposition by 1H-NMR ([6]; 25° C. and 97% RH for 7 days): no decomposition was evident; form by XRPD ([6]; 25° C. and 97% RH for 7 days): converted at this very high humidity level to Form 1; decomposition by 1H-NMR ([6]; 40° C. and 75% RH for 7 days): some decomposition had occurred; Mean Conc of parent ([3]; FaSSIF, 37° C., Day 7): 780 µg/mL; Mean Conc of parent ([3]; FaSSIF, ambient, Day 0): 1000 µg/mL; Mean Conc of parent ([3]; FaSSIF, ambient, Day 3): 810 µg/mL; Mean Conc of parent ([3]; FaSSIF, ambient, Day 7): 930 µg/mL; equilibrium solubility in words [4]: high and comparable; Equilibrium solubility, Mean Conc [4, 8]: 733; Equilibrium solubility, Mean Conc ([4]; 0.1M HCl, 24 Hours): 3057; Equilibrium solubility, Mean Conc [4, 9]: 264; Equilibrium solubility, Mean Conc [4, 10]: 221"
